What was measured:
recombinant human HDAC6 = recombinant human HDAC6 (Homo sapiens (Human), UniProt Q9UBN7); assay: Enzymatic screening, HDAC6 inhibition (fluorogenic FdL_G substrate); type: biochemical
In short: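 Enzyme was preincubated with compound (8 doses, triplicate, 1% DMSO) in 25 mM Tris-HCl pH 8, 130 mM NaCl, 0.05% Tween-20, 10% glycerol, with BSA. A FLUOR DE LYS-Green substrate was then added, and fluorescence was read after developer plus 2 μM TSA.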

recombinant human HDAC1 = recombinant human HDAC1 (Homo sapiens (Human), UniProt Q13547); assay: Enzymatic screening, HDAC1 inhibition (fluorogenic FdL_G substrate); type: biochemical
recombinant human HDAC1, sequence (Q13547 whole entry): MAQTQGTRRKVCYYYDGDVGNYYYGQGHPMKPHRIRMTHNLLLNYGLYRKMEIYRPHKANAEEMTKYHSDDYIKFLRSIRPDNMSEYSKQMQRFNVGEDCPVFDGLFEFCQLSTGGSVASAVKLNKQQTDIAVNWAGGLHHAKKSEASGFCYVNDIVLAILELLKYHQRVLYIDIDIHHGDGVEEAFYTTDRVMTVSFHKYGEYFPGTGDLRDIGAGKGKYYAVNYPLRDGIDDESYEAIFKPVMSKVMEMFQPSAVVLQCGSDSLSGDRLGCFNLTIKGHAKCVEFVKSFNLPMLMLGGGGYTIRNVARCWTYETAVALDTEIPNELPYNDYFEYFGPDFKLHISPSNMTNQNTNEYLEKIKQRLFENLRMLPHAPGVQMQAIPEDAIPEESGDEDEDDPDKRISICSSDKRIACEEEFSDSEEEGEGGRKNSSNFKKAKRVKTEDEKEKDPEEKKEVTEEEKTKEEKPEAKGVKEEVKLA
In short: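 Recombinant human HDAC1 inhibition was measured fluorometrically using the FLUOR DE LYS-Green (FdL_G) substrate. Compounds at 8 doses (1% DMSO final) in Tris-HCl pH 8 buffer with NaCl, Tween-20 and glycerol were preincubated in triplicate with enzyme and 1 mg/mL BSA, then given substrate. Developer I plus 2 μM TSA was added, and fluorescence read after 25 minutes in the dark.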

Stability in rat plasma = details: after 4 hours, 37° C.
[1] = Stability in human plasma; details: after 4 hours, 37° C.
[2] = Stability to Phase I metabolism in rat S9 liver fraction; details: after 90 minutes, 37° C.
Experimental: Test compounds were incubated in rat and human liver S9 fraction at 37° C. up to 90 minutes in order to evaluate their stability to Phase I metabolism by hepatic enzymes. Each test compound was incubated at μM concentration (50 μM when the samples were analysed by UV/HPLC, 1 or 2 μM when the samples were analysed by LC-MS/MS) with S9 fraction (protein content 2 mg/m L) in 100 mM phosphate buffer (pH 7.4), 3.3 mM MgCl2 and 1.3 mM NADPH for 0, 10, 30, 60 and 90 minutes at 37° C. in a thermostated oscillating bath. The reaction was stopped placing samples on ice bath and adding acidified acetonitrile. After centrifugation (10 minutes at 14000 rpm) an aliquot of the supernatant was diluted with water, filtered with 0.45 μm regenerated cellulose syringe filters and injected in HPLC-UV or in LC-MS/MS. The percentage of the remaining amount at the various incubation times with respect to the initial amount were calculated.

[3] = Stability to Phase I metabolism in human S9 liver fraction; details: after 90 minutes, 37° C.

recombinant human HDAC6, sequence (Q9UBN7 whole entry): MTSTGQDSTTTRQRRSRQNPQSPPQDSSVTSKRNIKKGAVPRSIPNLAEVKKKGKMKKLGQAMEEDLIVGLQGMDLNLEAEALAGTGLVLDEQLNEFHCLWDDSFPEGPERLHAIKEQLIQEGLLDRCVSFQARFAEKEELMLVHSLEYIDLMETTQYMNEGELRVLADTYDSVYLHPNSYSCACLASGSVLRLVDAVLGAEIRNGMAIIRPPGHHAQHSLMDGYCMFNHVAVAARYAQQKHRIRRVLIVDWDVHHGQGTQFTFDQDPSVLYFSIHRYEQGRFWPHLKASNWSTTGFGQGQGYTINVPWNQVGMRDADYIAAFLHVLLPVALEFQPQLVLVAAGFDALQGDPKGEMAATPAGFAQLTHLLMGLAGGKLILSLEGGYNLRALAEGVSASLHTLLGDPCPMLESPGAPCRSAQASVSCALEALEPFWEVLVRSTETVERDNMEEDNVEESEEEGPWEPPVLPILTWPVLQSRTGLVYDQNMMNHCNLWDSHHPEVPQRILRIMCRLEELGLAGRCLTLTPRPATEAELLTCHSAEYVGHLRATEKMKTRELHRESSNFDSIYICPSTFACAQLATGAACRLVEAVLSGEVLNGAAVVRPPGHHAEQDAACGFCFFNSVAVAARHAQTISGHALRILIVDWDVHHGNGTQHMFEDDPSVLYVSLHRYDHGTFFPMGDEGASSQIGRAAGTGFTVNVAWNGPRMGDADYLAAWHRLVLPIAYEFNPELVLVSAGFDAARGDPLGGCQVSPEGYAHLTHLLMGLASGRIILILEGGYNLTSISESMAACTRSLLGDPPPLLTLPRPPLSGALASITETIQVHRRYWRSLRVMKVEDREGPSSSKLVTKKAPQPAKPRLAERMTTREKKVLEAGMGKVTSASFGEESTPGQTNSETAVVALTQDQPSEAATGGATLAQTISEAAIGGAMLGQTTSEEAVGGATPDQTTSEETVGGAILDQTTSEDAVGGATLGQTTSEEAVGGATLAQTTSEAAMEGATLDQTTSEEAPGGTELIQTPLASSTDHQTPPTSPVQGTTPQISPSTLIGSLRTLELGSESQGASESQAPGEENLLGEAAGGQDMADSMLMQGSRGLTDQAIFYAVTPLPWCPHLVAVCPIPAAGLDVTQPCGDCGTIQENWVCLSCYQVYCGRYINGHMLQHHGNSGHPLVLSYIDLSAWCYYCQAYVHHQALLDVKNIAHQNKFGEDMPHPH

Row | SMILES | IC50 (recombinant human HDAC6) [nM] | IC50 (recombinant human HDAC1) [µM] | residual percentage in RAT PLASMA (Stability in rat plasma) [%] | residual percentage in HUMAN PLASMA [1] [%] | residual percentage in RAT S9 FRACTION [2] [%] | residual percentage in HUMAN S9 FRACTION [3] [%]
1 | CC(c1ccc(-c2nnc(C(F)F)o2)c(F)c1)n1cc(-c2ccc(N)nc2)nn1 (centres unmarked) [compound 186, 5-(1-(1-(4-(5-(difluoromethyl)-1,3,4-oxadiazol-2-yl)-3-fluorophenyl)ethyl)-1H-1,2,3-triazol-4-yl)pyridin-2-amine] | 98 | > 200 | 86 | 94 | 90 | 88
2 | Nc1ncnc2cc(-c3cn(Cc4ccc(-c5nnc(C(F)F)o5)cc4)nn3)ccc12 [compound 84, 7-(1-(4-(5-(difluoromethyl)-1,3,4-oxadiazol-2-yl)benzyl)-1H-1,2,3-triazol-4-yl)quinazolin-4-amine] | 33 | > 200 | 60 | 80 | 62 | 85
3 | O=C(c1cccc(-c2nnn(Cc3ccc(-c4nnc(C(F)F)o4)cc3F)n2)c1)N1CCOCC1 [compound 93, (3-(2-(4-(5-(difluoromethyl)-1,3,4-oxadiazol-2-yl)-2-fluorobenzyl)-2H-tetrazol-5-yl)phenyl)(morpholino)methanone] | 36 | > 200 | 79 | 74 | 59 | 72
4 | O=C1NCc2ccc(-c3nnn(Cc4c(F)cc(-c5nnc(C(F)F)o5)cc4F)n3)cc21 [compound 57, 6-(2-(4-(5-(difluoromethyl)-1,3,4-oxadiazol-2-yl)-2,6-difluorobenzyl)-2H-tetrazol-5-yl)isoindolin-1-one] |  |  | 68 | 62 | 86 | 70
5 | C[C@@H](c1ccc(-c2nnc(C(F)F)o2)cc1)n1cc(-c2ccc(N)nc2)nn1 [compound 255, (S)-5-(1-(1-(4-(5-(difluoromethyl)-1,3,4-oxadiazol-2-yl)phenyl)ethyl)-1H-1,2,3-triazol-4-yl)pyridin-2-amine] |  |  | 57 | 91 | 76 | 98
6 | COc1ncc(NCc2ccc(-c3cn(Cc4ccc(-c5nnc(C(F)F)o5)cc4)nn3)cc2)cc1C(N)=O [compound 138, 5-((4-(1-(4-(5-(difluoromethyl)-1,3,4-oxadiazol-2-yl)benzyl)-1H-1,2,3-triazol-4-yl)benzyl)amino)-2-methoxynicotinamide] | 54 | > 200 |  | 92 | 66 | 70
7 | C[C@H](c1ccc(-c2nnc(C(F)F)o2)cc1)n1cc(-c2ccc(N)nc2)nn1 [compound 106, (R)-5-(1-(1-(4-(5-(difluoromethyl)-1,3,4-oxadiazol-2-yl)phenyl)ethyl)-1H-1,2,3-triazol-4-yl)pyridin-2-amine] |  |  | 78 | 86 | 69 | 78
8 | O=C1Nc2cc(-c3cn(Cc4ccc(-c5nnc(C(F)F)o5)cn4)nn3)ccc2C12CCCC2 [compound 123, 6′-(1-((5-(5-(difluoromethyl)-1,3,4-oxadiazol-2-yl)pyridin-2-yl)methyl)-1H-1,2,3-triazol-4-yl)spiro[cyclopentane-1,3′-indolin]-2′-one] | 46 | > 200 |  |  |  | 
9 | Cn1c(=O)[nH]c2cc(-c3nnn(Cc4ccc(-c5nnc(C(F)F)o5)cc4)n3)ccc21 [compound 210, 5-(2-(4-(5-(difluoromethyl)-1,3,4-oxadiazol-2-yl)benzyl)-2H-tetrazol-5-yl)-1-methyl-1,3-dihydro-2H-benzo[d]imidazol-2-one] | 138 | > 200 |  |  |  | 
10 | O=C1CCc2c1cccc2-c1nnn(Cc2ccc(-c3nnc(C(F)F)o3)cc2)n1 [compound 208, 4-(2-(4-(5-(difluoromethyl)-1,3,4-oxadiazol-2-yl)benzyl)-2H-tetrazol-5-yl)-2,3-dihydro-1H-inden-1-one] | 132 | > 200 |  |  |  | 
11 | Nc1ccc(-c2cn(C(CCCN3CCCCC3)c3ccc(-c4nnc(C(F)F)o4)cc3)nn2)cn1 (centres unmarked) [compound 303, 5-[1-[1-[4-[5-(difluoromethyl)-1,3,4-oxadiazol-2-yl]phenyl]-4-piperidin-1-ylbutyl]triazol-4-yl]pyridin-2-amine] | 62 | > 1000 |  |  |  | 
12 | O=C(c1cccc(-c2nnn(Cc3ccc(-c4nnc(C(F)F)o4)cc3)n2)c1)N1CCOCC1 [compound 120, (3-(2-(4-(5-(difluoromethyl)-1,3,4-oxadiazol-2-yl)benzyl)-2H-tetrazol-5-yl)phenyl)(morpholino)methanone] | 45 | > 200 |  |  |  | 

More lines, in order of falling IC50 (recombinant human HDAC6), values ahead:

Row | IC50 (recombinant human HDAC6) [nM] | IC50 (recombinant human HDAC1) [µM] | residual percentage in RAT PLASMA (Stability in rat plasma) [%] | residual percentage in HUMAN PLASMA [1] [%] | residual percentage in RAT S9 FRACTION [2] [%] | residual percentage in HUMAN S9 FRACTION [3] [%] | SMILES
13 | 32 | > 200 |  | 62 | 78 | 94 | O=C(Nc1cccc(-c2cn(Cc3c(F)cc(-c4nnc(C(F)F)o4)cc3F)nn2)c1)N1CCOCC1 [compound 78, N-(3-(1-(4-(5-(difluoromethyl)-1,3,4-oxadiazol-2-yl)-2,6-difluorobenzyl)-1H-1,2,3-triazol-4-yl)phenyl)morpholine-4-carboxamide]
14 | 26 | 32.9 | 81 | 76 | 94 | 70 | CCNc1nc2ccc(-c3cn(Cc4ccc(-c5nnc(C(F)F)o5)cc4)nn3)cc2[nH]1 [compd. 60, 6-(1-(4-(5-(difluoromethyl)-1,3,4-oxadiazol-2-yl)benzyl)-1H-1,2,3-triazol-4-yl)-N-ethyl-1H-benzo[d]imidazol-2-amine]
15 | 19 | > 200 |  |  |  |  | O=C1NCc2ccc(-c3nnn(Cc4ccc(-c5nnc(C(F)F)o5)cc4F)n3)cc21 [compound 40, 6-(2-(4-(5-(difluoromethyl)-1,3,4-oxadiazol-2-yl)-2-fluorobenzyl)-2H-tetrazol-5-yl)isoindolin-1-one]
16 | 15 | > 200 | 71 | 80 | 69 | 81 | FC(F)c1nnc(-c2ccc(Cn3cc(-c4ccc(NC5=NCCN5)cc4)cn3)cc2)o1 [compound 269, N-(4-(1-(4-(5-(difluoromethyl)-1,3,4-oxadiazol-2-yl)benzyl)-1H-pyrazol-4-yl)phenyl)-4,5-dihydro-1H-imidazol-2-amine]
17 | 11 | > 1000 |  |  |  |  | Nc1nc2ccc(-c3cn(Cc4ccc(-c5nnc(C(F)F)o5)cn4)cn3)cc2s1 [compound 307, 6-[1-[[5-[5-(difluoromethyl)-1,3,4-oxadiazol-2-yl]pyridin-2-yl]methyl]imidazol-4-yl]-1,3-benzothiazol-2-amine]
18 | 7 | > 200 |  |  |  |  | O=C(Nc1cc(-c2nnn(Cc3ccc(-c4nnc(C(F)F)o4)cc3)n2)ccc1O)N1CCOCC1 [compound 25, N-(5-(2-(4-(5-(difluoromethyl)-1,3,4-oxadiazol-2-yl)benzyl)-2H-tetrazol-5-yl)-2-hydroxyphenyl)morpholine-4-carboxamide]
